Counter-ions that a name gives are not always drawn.
What was measured:
Assay type in all cases: physicochemical
[1] = Salt storage stability at 40° C. and 75% relative humidity (HPLC for acid degradation product of Formula (A)); conditions: stored under high temperature and humidity, for example 40° C. and 75% relative humidity
Method: The stability of the stability of the mono-saccharin (2 different batches), mono-trans-cinnamic acid, mono-succinic acid, mono-benzoic acid, difumaric acid, dixinafoic acid (di-1-hydroxy-2-naphthoic acid) and disaccharin salts of Compound (I) when stored at 40° C. and 75% relative humidity was measured as follows.
Approximately 30 mg of each salt was weighted into 4 mL screw cap vials, the vials closed and stored at 40° C./75% relative humidity with constant control of the environmental conditions. For every time point the samples were removed from the storage facility and analysed by HPLC for the presence of the acid degradation product of the Formula (A): […]
The HPLC analysis was performed using the following method:
A sample solution was prepared at approximately 0.1 to 0.2 mg/mL in the sample diluent, 0.03% trifluoroacetic acid in 50/50 v/v acetonitrile/water, using sonication as required. The following chromatographic conditions were applied: […]

[2] = Salt/lactose monohydrate blend storage stability at 40° C. and 75% relative humidity; conditions: mixtures of salt with lactose monohydrate; 40° C./75% relative humidity
Method: The storage stability of blends of lactose monohydrate with the mono-saccharin, mono-benzoic acid, difumaric acid and disaccharin salts of Compound (I) when stored at is 40° C. and 75% relative humidity was measured as follows.
Approximately 5 grams of each salt were micronised using a 1″ jet mill (MC One, Jetpharma, Balerna, Switzerland) with Nitrogen as the flow gas.
10 g of bulk lactose blend of each salt was prepared by the following method:
Micronised lactose monohydrate (9800 mg) was added to a 60 ml clear glass bottle. To this was added the micronised salt of compound (I) (200 mg) and a rubber stopper and aluminium screw cap used to close the bottle.
The bottle containing the salt and lactose monohydrate was placed in a trembling blender (Turbula T2C, W. Bachofen, Basel, Switzerland) blending vessel and the mixture blended for 10 minutes on speed 1 (30 rpm). A sample (2 g) of the lactose/salt blend was removed. The remaining of lactose/salt blend (8 g) was placed in a stability suite (controlled environmental conditions) at 40° C./75% relative humidity. The sample was temporarily removed from the storage facility for analysis. For each analysis 50 mg of the lactose/salt blend were dissolved in the sample diluents and analysed by HPLC for the compound of Formula (A) as described above in Example 23.

[3] = Dynamic vapour sorption (DVS) hygroscopicity; conditions: at 80% relative humidity, weight change from 0% RH to 80% RH in second DVS cycle
Method: DVS analysis was performed using an SMS Dynamic Vapour Sorption DVS-Advantage instrument. The solid sample (approximately 1-5 mg) was placed into a platinum sample holder and the weight of the sample was recorded during a dual cycle step method (40 to 90 to 0 to 90 to 0% relative humidity (RH), in steps of 10% RH).
The responses of the mono-fumaric acid salt and the difumaric acid salt (Examples 15 and 19) to changes in humidity were investigated using DVS. The hygroscopicity was calculated as the relative change in weight of the sample between 0% RH at the start of the second cycle and 80% RH during the increase of humidity in the second cycle.
The hygroscopicity of a sample is dependent on factors in addition to the inherent properties of the pure solid form itself, for example the purity and the crystallinity of the sample will have some impact on the result.

SMILES | solid state chemical stability on storage [1] | stability in the presence of lactose monohydrate [2] | moisture uptake (hygroscopicity) [3] | moisture uptake (hygroscopicity) ([3]; listed as difumaric acid salt of Compound (I))
CCCCCNc1nc(N)nc(C)c1Cc1ccc(CC(=O)OCCCCN(C)C)cc1.O=C(O)c1ccccc1 [Example 1, 4-(Dimethylamino)butyl 2-(4-((2-amino-4-methyl-6-(pentylamino)pyrimidin-5-yl)methyl)phenyl)acetate benzoic acid salt] | good solid state chemical stability | – | – | –
CCCCCNc1nc(N)nc(C)c1Cc1ccc(CC(=O)OCCCCN(C)C)cc1 [disaccharin salt of Compound (I)] | good solid state chemical stability | particularly stable in the presence of lactose monohydrate | – | –
CCCCCNc1nc(N)nc(C)c1Cc1ccc(CC(=O)OCCCCN(C)C)cc1.O=C(O)/C=C/C(=O)O [Example 15, 4-(Dimethylamino)butyl 2-(4-((2-amino-4-methyl-6-(pentylamino)pyrimidin-5-yl)methyl)phenyl)acetate fumaric acid salt] | – | – | more than 2 % w/w | –
CCCCCNc1nc(N)nc(C)c1Cc1ccc(CC(=O)OCCCCN(C)C)cc1.O=C(O)/C=C/C(=O)O [Example 19, 4-(Dimethylamino)butyl 2-(4-((2-amino-4-methyl-6-(pentylamino)pyrimidin-5-yl)methyl)phenyl)acetate difumaric acid salt] | good solid state chemical stability | particularly stable in the presence of lactose monohydrate | – | 0.2-2 % w/w

Reference: US8476288B2, “Salts 756” (AstraZeneca AB, priority 2009, dated 2013)
